For this test, the system named is elderly Sprague-Dawley rats with paw incision surgery. To be noted: males and females; morphine 1 or 5 mg/kg s.c. 24 h after surgery.

Structures are written as SMILES.

With `CN1CC[C@]23c4c5ccc(O)c4O[C@H]2[C@@H](O)C=C[C@H]3[C@H]1C5.O=S(=O)(O)O` [morphine, morphine sulfate], the “paw withdrawal thresholds of morphine-injected animals compared with saline-injected counterparts” value is “higher than that of their saline-injected counterparts at up to 1.5 hours post-injection”.
